According to publication PMC5986654, “Combined HAT/EZH2 modulation leads to cancer-selective cell death” (Oncotarget, 2018):

Columns and labels:
[1] = target: p300 (Homo sapiens, UniProt Q09472); test: HAT in vitro assay, 10-dose IC50, p300; type: biochemical; settings: substrate Histone H3, 3 μM Acetyl-CoA; read-out: Compound IC50 p300
[2] = target: SIRT1 (Homo sapiens, UniProt Q96EB6); test: SIRT1 in vitro assay; type: biochemical
Method: The HDAC1 and SIRT1 assays were performed as described previously.

[3] = system: MePR2B; test: Cytotoxic effect on mesenchymal progenitor model MePR2B; type: cell-based; settings: immortalized non-cancer cells
[4] = Body weight of leukemia-xenografted mice; type: in vivo; settings: 1 mg/kg i.p. three times weekly, 16 days post-xenograft; control mice 94%
Method: (§1) Xenograft studies using NB4 and U937-AML cells were performed in NOG SCID mice under specific pathogen–free conditions. Cells (0.2 × 10^6 in 100 µL) were injected intravenously (retro orbital vein). Injected mice were randomly assigned to receive intra-peritoneal MC2884 (1 mg/kg) or vehicle for two weeks (8 doses) (10 mice per group). All animal procedures were performed in accordance with protocols approved by the local Committee for Animal Experimentation and with the permission of the Italian Health Ministry (n° 626/2015). At 16 days after injection, mice were sacrificed and the femurs and spleens were collected. Bone marrow (BM) and spleen cells were analyzed by FACS. To avoid non-specific stain, cells were mixed with mouse IgG and incubated with indicated antibodies for 30’. The mixture was depleted of erythrocytes and fixed (BD Pharmingen). […] Tumor growth was monitored by weekly bioluminescence imaging (BLI) acquisitions using an IVIS 3D Imaging System (Caliper Alameda, USA). To quantify bioluminescence, the integrated fluxes of photons (photons per s) within each area of interest were determined using the Living Images Software Package 3.2 (Caliper, Alameda, USA). […] Efficacy of drug treatment was assessed as inhibition of BLI emission comparing those MC2884 treated mice group and vehicle groups.

[5] = system: NB4 cells; test: NB4 leukemia xenograft, human CD45+ cells in bone marrow; type: in vivo, mice; settings: 1 mg/kg i.p., day 16
Method: as §1

[6] = system: U937 cells; test: U937 leukemia xenograft, human CD45+ cells in bone marrow; type: in vivo, mice; settings: 1 mg/kg i.p., day 16
Method: as §1

[7] = system: HCT116 colon carcinoma; test: HCT116 colon carcinoma xenograft, tumor volume; type: in vivo, mice; settings: 10 mg/Kg i.p., day 19
Method: HCT116 cell line was grown in McCoy’s medium, supplemented with 10% inactivated FBS, 2 mM glutamine and standard concentration of antibiotics. 7- to 8-week-old male CD1 nude athymic mice were purchased from Charles River and under pathogen-free conditions in accordance with European Directives no. 2010/63 and with Italian D.L. 26/2014. Mice were injected subcutaneously into the right flank with 4 × 10^6 of HCT116 cells; tumor volume (mm^3) was evaluated three times a week by caliper using the formula Dmax x dmin^^2/2, where ‘d’ and ‘D’ are the shortest and the longest diameters, respectively. For all experiments, mice were randomly divided (n = 7) and intra-peritoneal injected by day five every day with: vehicle sesame oil/DMSO 6%; MC2884 10 mg/Kg in sesame oil/DMSO 6%. Mice were sacrificed after 20 days of drug treatment and tumors explanted for immunohistochemical analyses. For HCT116-DKO colon cancer, 6 × 10^6 cells were injected.

[8] = Mouse terminal IV PK study; type: in vivo; settings: iv 2 mg/kg, male CD1 mice, plasma
Method: pHarmaCology male CD1 mice in a 5 mL/kg injection volume. Terminal blood samples (> 230 μL) were taken under CO2 from pharmacokinetic analysis (mice–iV, ip pK study) groups of 3 mice at each of 8 time-points post dose (0.083, 0.25, 0.5, 1, 2, 4, 8 and 24 h) and placed into heparinized
Compound was administered both intravenously and tubes. Samples were placed on ice for no longer than 30 intraperitoneally to mice. Blood samples were collected at min before centrifugation (10,000 rpm × 3 min). Plasma 8 time points over 24 hr and plasma analysed by LC-MS/ samples (>100 μL) were collected into fresh tubes and MS to determine the concentration of compound. frozen on dry ice. Number of plasma samples = 24.
The plasma time concentration profile was Consistent IV profiles were obtained, with little calculated with the main PK parameters (Co, AUClast, variability across the time-points (the average profile is t.,VD, and CL). shown in the second spreadsheet). An average half-life of […]
For ip dosing. After formulation assessment, […]
For iv dosing. Compound was dissolved at 0.4 mg/mL. […]

SIRT1, sequence (Q96EB6 whole entry): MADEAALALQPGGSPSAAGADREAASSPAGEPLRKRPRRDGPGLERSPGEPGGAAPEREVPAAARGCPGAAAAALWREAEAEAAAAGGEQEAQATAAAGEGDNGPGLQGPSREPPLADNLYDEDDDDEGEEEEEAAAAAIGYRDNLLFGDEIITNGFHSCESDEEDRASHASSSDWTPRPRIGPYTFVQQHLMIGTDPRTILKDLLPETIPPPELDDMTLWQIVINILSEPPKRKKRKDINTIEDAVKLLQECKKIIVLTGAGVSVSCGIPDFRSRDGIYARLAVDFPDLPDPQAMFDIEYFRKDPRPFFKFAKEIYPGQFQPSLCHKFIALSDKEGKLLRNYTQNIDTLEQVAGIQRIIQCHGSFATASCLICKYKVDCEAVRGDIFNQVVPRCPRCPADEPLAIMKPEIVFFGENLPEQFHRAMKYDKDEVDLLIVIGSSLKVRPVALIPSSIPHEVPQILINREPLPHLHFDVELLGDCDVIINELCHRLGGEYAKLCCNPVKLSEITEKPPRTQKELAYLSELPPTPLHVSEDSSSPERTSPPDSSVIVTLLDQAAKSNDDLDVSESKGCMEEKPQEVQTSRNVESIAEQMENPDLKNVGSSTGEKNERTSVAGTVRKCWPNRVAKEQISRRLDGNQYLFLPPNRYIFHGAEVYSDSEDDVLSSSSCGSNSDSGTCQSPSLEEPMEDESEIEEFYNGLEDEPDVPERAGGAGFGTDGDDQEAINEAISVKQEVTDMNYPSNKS
p300, sequence (Q09472 whole entry): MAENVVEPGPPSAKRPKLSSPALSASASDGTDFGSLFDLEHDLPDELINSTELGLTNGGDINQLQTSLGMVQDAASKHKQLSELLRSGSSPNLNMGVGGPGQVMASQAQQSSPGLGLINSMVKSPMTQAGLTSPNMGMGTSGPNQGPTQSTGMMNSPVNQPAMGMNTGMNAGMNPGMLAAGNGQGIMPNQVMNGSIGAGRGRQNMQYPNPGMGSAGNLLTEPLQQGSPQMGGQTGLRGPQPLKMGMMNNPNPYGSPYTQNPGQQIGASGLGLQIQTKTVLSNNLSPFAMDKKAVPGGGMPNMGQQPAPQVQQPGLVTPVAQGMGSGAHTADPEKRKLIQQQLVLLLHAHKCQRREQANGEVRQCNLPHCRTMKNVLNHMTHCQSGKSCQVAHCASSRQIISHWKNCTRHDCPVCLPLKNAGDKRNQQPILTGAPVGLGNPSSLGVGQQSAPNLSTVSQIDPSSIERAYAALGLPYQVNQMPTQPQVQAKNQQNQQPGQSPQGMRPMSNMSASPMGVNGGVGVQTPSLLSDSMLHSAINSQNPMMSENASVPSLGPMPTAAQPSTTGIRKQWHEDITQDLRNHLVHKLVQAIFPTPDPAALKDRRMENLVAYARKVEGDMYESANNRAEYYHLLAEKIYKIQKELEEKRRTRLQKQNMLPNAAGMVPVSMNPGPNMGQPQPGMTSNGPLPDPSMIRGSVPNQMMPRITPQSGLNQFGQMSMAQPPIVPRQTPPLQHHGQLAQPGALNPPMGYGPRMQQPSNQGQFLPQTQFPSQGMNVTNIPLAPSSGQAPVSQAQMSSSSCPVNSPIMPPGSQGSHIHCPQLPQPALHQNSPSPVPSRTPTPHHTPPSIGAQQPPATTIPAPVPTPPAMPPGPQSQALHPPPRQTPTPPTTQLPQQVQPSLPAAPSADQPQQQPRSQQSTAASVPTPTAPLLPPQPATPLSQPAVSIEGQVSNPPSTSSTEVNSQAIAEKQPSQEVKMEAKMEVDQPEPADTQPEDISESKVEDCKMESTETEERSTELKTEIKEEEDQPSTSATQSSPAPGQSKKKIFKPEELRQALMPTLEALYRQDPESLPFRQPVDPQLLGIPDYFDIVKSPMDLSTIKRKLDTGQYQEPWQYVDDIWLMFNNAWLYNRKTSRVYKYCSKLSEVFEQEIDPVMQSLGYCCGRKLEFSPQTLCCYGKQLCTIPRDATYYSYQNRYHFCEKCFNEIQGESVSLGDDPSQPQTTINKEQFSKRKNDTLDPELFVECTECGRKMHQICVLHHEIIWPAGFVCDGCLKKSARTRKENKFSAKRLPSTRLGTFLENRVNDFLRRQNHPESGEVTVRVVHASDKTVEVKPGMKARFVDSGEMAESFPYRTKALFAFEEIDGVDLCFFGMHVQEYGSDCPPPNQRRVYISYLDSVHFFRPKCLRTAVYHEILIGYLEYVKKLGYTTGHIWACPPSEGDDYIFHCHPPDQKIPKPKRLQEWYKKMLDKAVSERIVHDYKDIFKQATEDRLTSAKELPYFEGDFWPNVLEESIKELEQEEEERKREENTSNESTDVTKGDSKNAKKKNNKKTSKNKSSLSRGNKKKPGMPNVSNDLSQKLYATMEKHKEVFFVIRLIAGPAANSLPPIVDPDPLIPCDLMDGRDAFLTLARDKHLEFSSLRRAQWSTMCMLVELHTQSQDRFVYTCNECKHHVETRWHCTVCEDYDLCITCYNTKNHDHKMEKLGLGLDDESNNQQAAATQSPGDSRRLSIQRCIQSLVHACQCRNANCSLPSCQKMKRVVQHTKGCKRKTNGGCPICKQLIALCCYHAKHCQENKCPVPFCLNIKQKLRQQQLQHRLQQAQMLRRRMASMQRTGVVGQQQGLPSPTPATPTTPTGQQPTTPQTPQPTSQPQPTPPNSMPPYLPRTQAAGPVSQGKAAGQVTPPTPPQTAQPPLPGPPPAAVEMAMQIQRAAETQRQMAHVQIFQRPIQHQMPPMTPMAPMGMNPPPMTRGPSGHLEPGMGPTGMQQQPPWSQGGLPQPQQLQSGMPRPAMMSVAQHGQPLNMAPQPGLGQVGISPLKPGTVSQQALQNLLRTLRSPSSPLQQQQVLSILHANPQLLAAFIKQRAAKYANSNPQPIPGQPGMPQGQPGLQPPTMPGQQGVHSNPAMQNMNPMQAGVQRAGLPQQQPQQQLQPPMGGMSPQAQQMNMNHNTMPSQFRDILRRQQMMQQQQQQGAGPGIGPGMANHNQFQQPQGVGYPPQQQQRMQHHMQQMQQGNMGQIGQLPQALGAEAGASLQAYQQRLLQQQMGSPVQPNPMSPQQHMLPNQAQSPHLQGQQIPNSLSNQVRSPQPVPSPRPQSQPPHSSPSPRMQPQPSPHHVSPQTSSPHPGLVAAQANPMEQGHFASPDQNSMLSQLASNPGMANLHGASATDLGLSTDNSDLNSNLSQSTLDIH

**Q.** What does the source list for `O=C1/C(=C/c2cccc(Br)c2)CN(Cc2ccccc2)C/C1=C\c1cccc(Br)c1` [MC2884]?
**A.** IC50 [1]: 0.456 µM; SirT modulating action [2]: no activity; cytotoxic effect on MePR2B [3]: insensitive; normalized weight, % of initial weight [4]: 90%; human CD45+ cells in the bone marrow reduced to [5]: 17%; human CD45+ cells in the bone marrow reduced to [6]: 24%; tumor volume reduction versus untreated mice [7]: 90%; half-life [8]: 4.58 h
